# Measurements taken from the supplement of paper PMC11061612.
# Tests used:
# Experiment in all cases: Bliss excess, mean over the matrix (fraction); higher = more synergy
# [1] = test system: CCRF-CEM (T-Lymphoblastic Leukemia)
# Procedure, shortened: (§1)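 Bliss excess equals the observed combination effect minus the expected value EA + EB − EA·EB, where EA and EB are the effects of each agent alone. Combination Emax is the second-highest inhibition within the matrix. Inhibition was scaled from CellTiter-Glo 2.0 luminescence, with 0 set by vehicle wells and 1 by blank wells, after 72 hours of two-drug dosing of cells plated in 1536-well plates.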
# [2] = test system: Ramos-2G6-4C10 (Burkitt's Lymphoma)
# Procedure, shortened: as §1
# [3] = test system: EC-GI-10 (Esophageal Squamous Cell Carcinoma)
# Procedure, shortened: as §1
# [4] = test system: Daoy (Other Solid Carcinomas)
# Procedure, shortened: as §1
# [5] = test system: B-CPAP (Thyroid Gland Carcinoma)
# Procedure, shortened: as §1
# [6] = test system: KP-1N (Pancreatic Carcinoma)
# Procedure, shortened: as §1
# [7] = test system: COLO-205 (Colorectal Carcinoma)
# Procedure, shortened: as §1
# [8] = test system: CaR-1 (Colorectal Carcinoma)
# Procedure, shortened: as §1
# [9] = test system: HCC-78 (Lung Adenocarcinoma)
# Procedure, shortened: as §1
# [10] = test system: Calu-3 (Lung Adenocarcinoma)
# Procedure, shortened: as §1
# HOS (Osteosarcoma) = test system: HOS (Osteosarcoma)
# Procedure, shortened: as §1
# [11] = test system: LNCaP-Clone-FGC (Prostate Carcinoma)
# Procedure, shortened: as §1
# [12] = test system: MFE-296 (Endometrial Carcinoma)
# Procedure, shortened: as §1
# [13] = test system: HO-1-N-1 (Oral Cavity Carcinoma)
# Procedure, shortened: as §1
# [14] = test system: KYSE-520 (Esophageal Squamous Cell Carcinoma)
# Procedure, shortened: as §1
# [15] = test system: TE-9 (Esophageal Squamous Cell Carcinoma)
# Procedure, shortened: as §1
# AGS (Gastric Carcinoma) = test system: AGS (Gastric Carcinoma)
# Procedure, shortened: as §1
# [16] = test system: HT-1376 (Bladder Carcinoma)
# Procedure, shortened: as §1
# [17] = test system: SNU-5 (Gastric Carcinoma)
# Procedure, shortened: as §1
# [18] = test system: TCCSUP (Bladder Carcinoma)
# Procedure, shortened: as §1
Structure (SMILES),Bliss excess [1],Bliss excess [2],Bliss excess [3],Bliss excess [4],Bliss excess [5],Bliss excess [6],Bliss excess [7],Bliss excess [8],Bliss excess [9],Bliss excess [10],Bliss excess (HOS (Osteosarcoma)),Bliss excess [11],Bliss excess [12],Bliss excess [13],Bliss excess [14],Bliss excess [15],Bliss excess (AGS (Gastric Carcinoma)),Bliss excess [16],Bliss excess [17],Bliss excess [18]
"Cc1c2c(nn1C)CSCc1cc(n(C)n1)CSc1cc(c3ccccc3c1)OCCCc1c(C(=O)O)n(C)c3c-2c(Cl)ccc13 [AZD5991] + Cc1cc2ncnn2cc1Nc1ncc2c(n1)n(C1CCOCC1)c(=O)n2C [AZD7648] (first compound max 1 µM, 7x7, partner max 10 µM)",0.0837,0.0227,-0.0555,-0.0069,-0.0155,-0.0518,-0.0604,-0.0365,-0.016,-0.0115,-0.0036,-0.0423,-0.0101,-0.0039,-0.0595,0.0162,-0.037,-0.0218,0.0269,-0.0203
"Cc1c2c(nn1C)CSCc1cc(n(C)n1)CSc1cc(c3ccccc3c1)OCCCc1c(C(=O)O)n(C)c3c-2c(Cl)ccc13 [AZD5991] + Cn1cnc2c(F)c(Nc3ccc(Br)cc3Cl)c(C(=O)NOCCO)cc21 [Selumetinib] (first compound max 1 µM, 7x7, partner max 3 µM)",0.0383,-0.0074,0.051,0.02,-0.0219,-0.029,0.0145,-0.03,-0.0245,-0.015,-0.0261,-0.0301,0.0234,0.0303,-0.0208,-0.0097,0.186,0.0144,0.0262,-0.0066
"C[C@@H]1COCCN1c1cc(C2([S@](C)(=N)=O)CC2)nc(-c2ccnc3[nH]ccc23)n1 [AZD6738] + O=C(c1cc(Cc2n[nH]c(=O)c3ccccc23)ccc1F)N1CCN(C(=O)C2CC2)CC1 [Olaparib] (first compound max 10 µM, 7x7, partner max 10 µM)",0.0377,-0.0881,-0.0147,0.0116,0.0364,0.0379,0.0205,-0.0391,0.0171,0.0139,0.0132,-0.0297,0.029,-0.0196,-0.0402,0.0403,-0.0108,-0.0687,-0.0464,0.067
"Cc1cc2ncnn2cc1Nc1ncc2c(n1)n(C1CCOCC1)c(=O)n2C [AZD7648] + C=CCn1c(=O)c2cnc(Nc3ccc(N4CCN(C)CC4)cc3)nc2n1-c1cccc(C(C)(C)O)n1 [AZD1775] (first compound max 10 µM, partner max 1 µM)",0.0337,0.0005,-0.0049,0.0018,-0.0273,-0.0681,-0.026,0.0022,-0.0417,-0.0073,-0.0109,-0.0273,-0.0096,0.0444,0.0058,0.0148,-0.0152,0.0121,0.0073,-0.0109
"Cc1cc2ncnn2cc1Nc1ncc2c(n1)n(C1CCOCC1)c(=O)n2C [AZD7648] + CCN(CCO)CCCOc1ccc2c(Nc3cc(CC(=O)Nc4cccc(F)c4)[nH]n3)ncnc2c1 [AZD2811] (first compound max 10 µM, 7x7, partner max 1 µM)",-0.0396,0.188,0.0846,0.0083,-0.0264,-0.02,-0.0303,-0.0102,-0.014,0.002,0.0182,-0.003,-0.0112,0.0478,0.0138,-0.0002,0.0641,-0.0382,0.0543,0.0258
"Cc1cc2ncnn2cc1Nc1ncc2c(n1)n(C1CCOCC1)c(=O)n2C [AZD7648] + CN(C)CCCOc1ccc(-c2ccc3ncc4c(c3c2)n(C2CCOCC2)c(=O)n4C)cn1 [AZD0156] (first compound max 10 µM, 7x7, partner max 1 µM)",-0.003,0.0236,0.0001,0.0614,-0.0206,-0.0058,0.0271,0.0399,0.0106,-0.0252,-0.0172,0.0016,0.0042,0.0046,-0.0068,0.009,0.0178,0.0037,0.0166,-0.011
"Cc1cc2ncnn2cc1Nc1ncc2c(n1)n(C1CCOCC1)c(=O)n2C [AZD7648] + C[C@@H]1COCCN1C2=NC(=NC(=C2)C3(CC3)[S@](=N)(=O)C)C4=C5C=CNC5=NC=C4 [AZD6738] (first compound max 10 µM, 7x7, partner max 10 µM)",0.0206,0.0129,-0.0064,0.0328,-0.0649,-0.0035,0.0195,0.0287,-0.0011,0.0012,0.0345,-0.0069,0.0193,0.0001,0.0356,0.0252,0.0015,0.0176,0.0337,0.0311
